For assay [1], the system named is HIV-1 (wild type) in C8166 LTRluc cells. Description: C8166 HIV-1 luciferase assay (EC50), wild type. The following applies: Human immunodeficiency virus 1, C8166 HIV-1 luciferase assay (no *). The class given is cell-based. An excerpt: (§1) C8166 HIV-1 Luciferase Assay (EC50)
(§2) Plasmid: pGL3 Basic LTR/TAR #12
Plasmid is the pGL3 Basic Vector (a promoterless luciferase expression vector from Promega catalogue #E1751) with the addition of HIV-1 H×B2 LTR sequence from nucleotide −138 to +80 (Sca1-HindIII) upstream of the luciferase gene and the gene for blasticidine resistance cloned in.
(§3) C8166 cells are a human T-lymphotrophic virus type 1 immortalized but nonexpressing line of cord blood lymphocytes and are highly permissive to HIV-1 infection. The reporter cells were made by electroporating C8166 cells with pGL3 Basic LTR/TAR and then selecting positive clones with blasticidine. The clone C8166-LTRluc #A8-F5-G7 was selected by 3 consecutive rounds of limiting dilution under blasticidine selection.
(§4) Media: Complete media consisting of: RPMI 1640+10% FBS+10^−5 M
(§5) β-mercaptoethanol+10 μg/ml gentamycin. Cultures are maintained in complete media with 5 μg/ml blasticidine, however, selection is removed for the assay.
(§6) Luciferase Assay Protocol
Serial dilutions of HIV-1 inhibitors compounds are prepared in complete media from 10 mM DMSO stock solutions. Eleven serial dilutions of 2.5× are made at 8× desired final concentration in a 1 ml deep well titer plate (96 wells). The 12th well contains complete media with no inhibitor and serves as the positive control. All samples contain the same concentration of DMSO (≦0.1% DMSO). A 25 μl aliquot of inhibitor is added, to triplicate wells, of a 96 well tissue culture treated clear view black microtiter plate (Corning Costar catalogue # 3904). The last row is reserved for uninfected C8166 LTRluc cells to serve as the background blank control and the first row is media alone.
Count C8166 LTRluc cells and place in a minimal volume of complete RPMI 1640 in a tissue culture flask (ex. 30×10^6 cells in 10 ml media/25 cm^2 flask). Infect cells with HIV-1 at a moi of 0.005. Incubate cells for 1.5 hours at 37° C. on a rotating rack in a 5% CO2 incubator. Resuspend cells in complete RPMI to give a final concentration of 25,000-cells/175 μl. Add 175 μl of cell mix to wells of 96 well microtiter plate containing 25 μl 8× inhibitors. Add 25,000 uninfected C8166-LTRluc cells/well in 200 μl complete RPMI to last row for background control. Incubate cells at 37° C. in 5% CO2 incubator for 3 days.
(§7) Add 50 μl Steady Glo (luciferase substrate T1/2=5 hours Promega catalogue # E2520) to each well of the 96 well plate. Determine the relative light units (RLU) of luciferase using the BMG LUMlstar Galaxy luminometer. Plates are read from the bottom for 2 seconds per well with a gain of 240.
(§8) The level of inhibition (% inhibition) of each well containing inhibitor was calculated with the following equation: […]
The calculated % inhibition values were then used to determine EC50, slope factor (n) and maximum inhibition (Imax) by the non-linear regression routine NLIN procedure of SAS using the following equation: […]
The results are listed in Table 9 as IC50(nM) and EC50 (nM).
(§9) Table legend: A=>100; B=100-50; C=<50; NT=not tested

In assay [2] the target is T1, HIV-1 RT resistant mutant K103N/Y181C (Human immunodeficiency virus type 1 group M subtype B, UniProt P04585, K690N/Y768C).
T1 construct: The reverse transcriptase (RT) enzyme assay has been adapted to a 96-well microtiter plate format
As to the kind of experiment: Reverse transcriptase (RT) enzymatic assay (IC50), PicoGreen fluorescence, resistant mutant. The class given is biochemical. The procedure: (§10) Reverse Transcriptase (RT) Assays Enzymatic Assay (IC50)
The enzymatic assay employed is described as follows: The reverse transcriptase (RT) enzyme assay has been adapted to a 96-well microtiter plate format and uses PicoGreen™ as a fluorescent intercalator. More explicitly, the HIV-1 RT enzyme was thawed and appropriately diluted into Tris/HCl 50 mM pH 7.8 containing NaCl 60 mM, MgCl2∘6H2O 2 mM, DTT 6 mM, GSH 2 mM and 0.02% w/v Chaps to give ≈10 nM enzyme. To 10 μL of this enzyme solution was added 10 μL of inhibitor solution (40 μM to […] inhibitor in the same assay buffer as above containing 4% v/v DMSO). The plate was pre-incubated for 15 minutes at room temperature before proceeding to the next step. In this pre-incubation step, the highest and lowest inhibitor concentrations were 20 μM and 1.016 nM respectively and the concentration of DMSO was 2% v/v. Then the enzymatic reaction was initiated by addition of 20 μL of substrate solution. The final reaction mixture contained Tris/HCl 50 mM pH 7.8, NaCl 60 mM, MgCl2∘6H2O 2 mM, DTT 6 mM, GSH 2 mM, CHAPS 0.02% w/v, DMSO 1% v/v, poly rC 45 nM, dG15 4.5 nM, dGTP 3.6 μM, and ≈2.5 nM enzyme. In this incubation step, the highest and lowest inhibitor concentrations were 10 μM and 0.508 nM respectively. After addition of the substrate cocktail, the plate was covered with a plastic seal and incubated for 50 minutes at 37° C. in a dry incubator. The reaction was then quenched by addition of 5 μL of EDTA 0.5 M. The plate was shaken for 30 seconds at medium speed and incubated for 5 minutes at room temperature. Then 160 μL of PicoGreen™ 1:400 dilution from commercial stock (diluted in Tris 20 mM pH 7.5 with EDTA 1 mM) was added and the plate was shaken for 30 seconds and incubated for 10 minutes at room temperature. The plate was then analyzed using a POLARstar Galaxy fluorimeter (BMG Labtechnologies) with λex and λem of 485 nm and 520 nm respectively. […] Each row contained at its extremities a blank and a control well.
as §9

Assay [3] has as its system HIV-1 resistant mutant K103N/Y181C in C8166 LTRluc cells. As to the kind of experiment: C8166 HIV-1 luciferase assay (EC50), resistant mutant. The following applies: Human immunodeficiency virus 1, C8166, read-out: EC50 K103N/Y181C. The class given is cell-based.
From the text: as §1, §2, §3, §4, §5, §6
Eleven serial dilutions of 2.5× are made at 8× desired final concentration in a 1 ml deep well titer plate (96 wells). The 12th well contains complete media with no inhibitor and serves as the positive control. All samples contain the same concentration of DMSO (≦0.1% DMSO). A 25 μl aliquot of inhibitor is added, to triplicate wells, of a 96 well tissue culture treated clear view black microtiter plate (Corning Costar catalogue # 3904). The last row is reserved for uninfected C8166 LTRluc cells to serve as the background blank control and the first row is media alone.
Count C8166 LTRluc cells and place in a minimal volume of complete RPMI 1640 in a tissue culture flask (ex. 30×10^6 cells in 10 ml media/25 cm^2 flask). […] Incubate cells for 1.5 hours at 37° C. on a rotating rack in a 5% CO2 incubator. Resuspend cells in complete RPMI to give a final concentration of 25,000-cells/175 μl. Add 175 μl of cell mix to wells of 96 well microtiter plate containing 25 μl 8× inhibitors. Add 25,000 uninfected C8166-LTRluc cells/well in 200 μl complete RPMI to last row for background control. Incubate cells at 37° C. in 5% CO2 incubator for 3 days.
as §7, §8
The calculated % inhibition values were then used to determine EC50, slope factor (n) and maximum inhibition (Imax) by the non-linear regression routine NLIN procedure of SAS using the following equation:
as §9

Assay [4] addresses T2, HIV-1 RT enzyme (wild type) (Human immunodeficiency virus type 1 group M subtype B, UniProt P04585).
T2 construct: The reverse transcriptase (RT) enzyme assay has been adapted to a 96-well microtiter plate format
As to the kind of experiment: Reverse transcriptase (RT) enzymatic assay (IC50), PicoGreen fluorescence, wild type. The class given is biochemical. The following applies: RT enzymatic assay, wild type; read-out: IC50 WT. As to the method:
as §10
The enzymatic assay employed is described as follows: The reverse transcriptase (RT) enzyme assay has been adapted to a 96-well microtiter plate format and uses PicoGreen™ as a fluorescent intercalator. More explicitly, the HIV-1 RT enzyme was thawed and appropriately diluted into Tris/HCl 50 mM pH 7.8 containing NaCl 60 mM, MgCl2∘6H2O 2 mM, DTT 6 mM, GSH 2 mM and 0.02% w/v Chaps to give ≈10 nM enzyme. […] The plate was pre-incubated for 15 minutes at room temperature before proceeding to the next step. […] Then the enzymatic reaction was initiated by addition of 20 μL of substrate solution. […] After addition of the substrate cocktail, the plate was covered with a plastic seal and incubated for 50 minutes at 37° C. in a dry incubator. The reaction was then quenched by addition of 5 μL of EDTA 0.5 M. The plate was shaken for 30 seconds at medium speed and incubated for 5 minutes at room temperature. Then 160 μL of PicoGreen™ 1:400 dilution from commercial stock (diluted in Tris 20 mM pH 7.5 with EDTA 1 mM) was added and the plate was shaken for 30 seconds and incubated for 10 minutes at room temperature. […] Each row contained at its extremities a blank and a control well.
as §9

We go through 18 compounds from patent US7642277B2, “Non-nucleoside reverse transcriptase inhibitors” (Boehringer Ingelheim International GmbH, priority 2002, dated 2010).

Each structure is given as a SMILES string.

Turning to `CCc1nnc(SCC(=O)Nc2ccccc2[N+](=O)[O-])n1-c1cccc2ccccc12` [Entry 425], the EC50 in assay [1] was < 0.05 µM; in assay [3], > 0.1 µM. Moreover, the IC50 in assay [2] is > 0.1 µM.

For the compound `CC(C)(C)c1ccc(-n2nnnc2SCC(=O)Nc2ccc(S(=O)(=O)c3ccc(Cl)cc3)cc2Cl)c(Cl)c1` [Entry 605], the EC50 in assay [1] is 0.05 to 0.1 µM; in assay [3], > 0.1 µM. For the same compound, the results for the IC50 in assay [4] and in assay [2] were < 0.05 µM and > 0.1 µM, respectively.

As for `O=C(CSc1nnnn1-c1cccc2ccccc12)Nc1ccccc1O` [Entry 211], the values for the EC50 in assay [1] and in assay [3] were < 0.05 µM and > 0.1 µM, respectively. The IC50 in assay [4] was > 0.1 µM.

For the compound `CC(C)(C)c1ccc(-n2nnnc2SCC(=O)Nc2ccc(N3CCNCC3)cc2Cl)c(Cl)c1` [Entry 615], the EC50 is < 0.05 µM in assay [1] and > 0.1 µM in assay [3]. Also, the IC50 is < 0.05 µM in assay [4] and > 0.1 µM in assay [2].

Take `Cc1ccc(NC(=O)CSc2nnnn2-c2ccc(C(C)(C)C)cc2Cl)c(Cl)n1` [Entry 802]: the EC50 was < 0.05 µM in assay [1] and 0.05 to 0.1 µM in assay [3]. Moreover, the half-inhibitory concentration (IC50) in assay [4] is < 0.05 µM; in assay [2], > 0.1 µM.

Take `Cc1ccc(Cl)c(-n2nnnc2SCC(=O)Nc2ccccc2[N+](=O)[O-])c1` [Entry 145]: the figures for the EC50 in assay [1] and in assay [3] were < 0.05 µM and > 0.1 µM, respectively. Moreover, the figures for the 50% inhibitory concentration (IC50) in assay [4] and in assay [2] were < 0.05 µM and > 0.1 µM, respectively.

Consider `Cc1cc(C)c(-n2nnnc2SCC(=O)Nc2ccccc2[N+](=O)[O-])c(Cl)c1` [Entry 146], for which the EC50 in assay [1] was < 0.05 µM; in assay [3], 0.05 to 0.1 µM. The figures for the 50% inhibitory concentration (IC50) in assay [4] and in assay [2] were < 0.05 µM and 0.05 to 0.1 µM, respectively.

For `CC(C)(C)c1ccc(-n2nnnc2SCC(=O)Nc2ccc([N+](=O)[O-])cc2Cl)c(Cl)c1` [Entry 602], the EC50 in assay [1] was 0.05 to 0.1 µM; in assay [3], > 0.1 µM. Moreover, the half-inhibitory concentration (IC50) is < 0.05 µM in assay [4] and > 0.1 µM in assay [2].

For the compound `CC(C)(C)c1ccc(-n2nnnc2SCC(=O)Nc2ccc(C(=O)O)cc2Cl)c(Cl)c1` [Entry 616], the EC50 in assay [1] and in assay [3] was < 0.05 µM in each case. The IC50 in assay [4] is < 0.05 µM; in assay [2], 0.05 to 0.1 µM.

As for `Cc1ccc(-c2ccccc2SCC(=O)Nc2ccccc2[N+](=O)[O-])c(Cl)c1` [Entry 417], the EC50 was < 0.05 µM in assay [1] and > 0.1 µM in assay [3]. Besides, the half-maximal inhibitory concentration (IC50) is < 0.05 µM in assay [4] and > 0.1 µM in assay [2].

As for `CC(C)(C)OC(=O)N1CCN(c2ccc(NC(=O)CSc3nnnn3-c3ccc(C(C)(C)C)cc3Cl)c(Cl)c2)CC1` [Entry 614], the EC50 is < 0.05 µM in assay [1] and > 0.1 µM in assay [3]. Besides, the figures for the IC50 in assay [4] and in assay [2] were < 0.05 µM and > 0.1 µM, respectively.

As for `Cc1ccc(-n2c(C)nnc2SCC(=O)Nc2ccccc2[N+](=O)[O-])c(Cl)c1` [Entry 427], the EC50 in assay [1] is < 0.05 µM; in assay [3] it was > 0.1 µM. In addition, the half-inhibitory concentration (IC50) in assay [2] was > 0.1 µM.

Take `CCN(CC)c1ccc(-n2nnnc2SCC(=O)Nc2ccccc2[N+](=O)[O-])cc1` [Entry 143]: the figures for the EC50 in assay [1] and in assay [3] were < 0.05 µM and > 0.1 µM, respectively. Further, in assay [2], the IC50 was > 0.1 µM.

As for `CC(C)(C)c1ccc(-n2nnnc2SCC(=O)Nc2ccc(S(C)(=O)=O)cc2Cl)c(Cl)c1` [Entry 603], the EC50 in assay [1] and in assay [3] was < 0.05 µM in each case.

`O=C(CSc1nnnn1-c1cccc2ccccc12)Nc1ccccc1Cl` [Entry 208, N-(2-Chlorophenyl)-2-{{1-(1-naphthalenyl)-1H-tetrazol-5-yl}thio}acetamide]: the EC50 in assay [1] is < 0.05 µM; in assay [3], > 0.1 µM.

`Cc1ccc(-n2nnnc2SCC(=O)Nc2cccnc2Cl)c(Cl)c1` [Entry 803]: the EC50 in assay [1] was < 0.05 µM; in assay [3], > 0.1 µM. Besides, the IC50 in assay [2] is > 0.1 µM.

For the compound `Cc1ccc(-n2c(C)nnc2SCC(=O)Nc2ccc(-c3ccccc3)cc2Cl)c(Cl)c1` [Entry 428], the EC50 was < 0.05 µM in assay [1] and > 0.1 µM in assay [3]. Moreover, the IC50 in assay [2] was > 0.1 µM.

As to `CC(C)c1ccc(-n2nnnc2SCC(=O)Nc2ccccc2[N+](=O)[O-])cc1` [Entry 142], the EC50 was < 0.05 µM in assay [1] and > 0.1 µM in assay [3]. Further, in assay [2], the IC50 is > 0.1 µM.

Usually IC50 stands for the midpoint of a concentration-inhibition curve.
